According to PubChem BioAssay AID256 (DTP/NCI, 2004):
Toxic doses and inconclusive results are not listed. Rule for the calls: active = survival T/C of 150% or more; inactive = T/C below 125% in these data.

Test system: CD2F1 mice, L1210 leukemia ip, survival T/C
Assay: NCI In Vivo Anticancer Drug Screen. Data for tumor model L1210 Leukemia (intraperitoneal) in CD2F1 (CDF1) mice
Details: endpoint: mean survival time, higher = longer survival
How it was run: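 Vehicle-treated tumor-bearing mice served as controls (C) for compound-treated mice (T). Reported figure is T divided by C.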

Measured: T/C

C1CCC(CCC2CCCC[N-]2)[N-]C1.C1CCC(CCC2CCCC[N-]2)[N-]C1.[Ni+2].[O-][Cl+3]([O-])([O-])O (stereo unspecified)
inactive: dose: 5.0 mg/kg/injection, schedule: Q01DX009 (ip), vehicle: saline 103 % of control | dose: 10.0 mg/kg/injection, schedule: Q01DX009 (ip), vehicle: saline 104 % of control | dose: 12.5 mg/kg/injection, schedule: Q01DX001 (ip), vehicle: saline with Tween-80 90 % of control | dose: 12.5 mg/kg/injection, schedule: Q04DX002 (ip), vehicle: saline 95 % of control | dose: 12.5 mg/kg/injection, schedule: Q04DX003 (ip), vehicle: saline 104 % of control | dose: 20.0 mg/kg/injection, schedule: Q01DX009 (ip), vehicle: saline 103 % of control | dose: 25.0 mg/kg/injection, schedule: Q01DX001 (ip), vehicle: saline 102 % of control | dose: 25.0 mg/kg/injection, schedule: Q04DX002 (ip), vehicle: saline 98 % of control | dose: 25.0 mg/kg/injection, schedule: Q04DX003 (ip), vehicle: saline 108 % of control | dose: 40.0 mg/kg/injection, schedule: Q01DX009 (ip), vehicle: saline 109 % of control | dose: 50.0 mg/kg/injection, schedule: Q01DX001 (ip), vehicle: saline 102 % of control | dose: 50.0 mg/kg/injection, schedule: Q04DX002 (ip), vehicle: saline 98 % of control | dose: 50.0 mg/kg/injection, schedule: Q04DX003 (ip), vehicle: saline 102 % of control | dose: 75.0 mg/kg/injection, schedule: Q01DX001 (ip), vehicle: saline 101 % of control | dose: 100.0 mg/kg/injection, schedule: Q01DX001 (ip), vehicle: saline 102 % of control | dose: 100.0 mg/kg/injection, schedule: Q04DX002 (ip), vehicle: saline 102 % of control | dose: 100.0 mg/kg/injection, schedule: Q04DX003 (ip), vehicle: saline 104 % of control

COC(=O)C(I)C(OC)c1ccccc1 (stereo unspecified)
inactive: dose: 100.0 mg/kg/injection, schedule: Q01DX009 (ip), vehicle: saline with Tween-80 107 % of control | dose: 200.0 mg/kg/injection, schedule: Q01DX009 (ip), vehicle: saline with Tween-80 100 % of control | dose: 400.0 mg/kg/injection, schedule: Q01DX009 (ip), vehicle: saline with Tween-80 97 % of control

CC(C)(C(=O)O)C(C)(C)C(=O)O
inactive: dose: 100.0 mg/kg/injection, schedule: Q01DX001 (ip), vehicle: saline with Tween-80 98 % of control | dose: 200.0 mg/kg/injection, schedule: Q01DX001 (ip), vehicle: saline with Tween-80 98 % of control | dose: 400.0 mg/kg/injection, schedule: Q01DX001 (ip), vehicle: saline with Tween-80 101 % of control

OCC1OC(n2cnc3c2nnn2ccnc32)C(O)C1O (stereo unspecified)
inactive: dose: 100.0 mg/kg/injection, schedule: Q01DX009 (ip), vehicle: saline 112 % of control | dose: 200.0 mg/kg/injection, schedule: Q01DX009 (ip), vehicle: saline 106 % of control | dose: 400.0 mg/kg/injection, schedule: Q01DX009 (ip), vehicle: saline 115 % of control
